Results: patent US7572770B2, “Use of an interleukin 1 receptor antagonist and/or pyrrolidinedithiocarbamate for the treatment or prophylaxis of type 2 diabetes” (University of Zurich, priority 2002, dated 2009)

What was measured:
NF-κB = NF-κB activation in human islets; type: cell-based; conditions: 33.3 mM glucose with IL-1Ra 500 ng/ml, 44 hours
Description: Western blot analysis. Islets were cultured in a culture medium in non-adherent plastic dishes. One day after isolation, the medium was changed and groups of 200 islets were incubated for 44 hours in culture medium containing 5.5 or 33.3 mM glucose without or with 2 ng/ml IL-1β or 500 ng/ml IL-1Ra. At the end of the incubations, islets were washed in PBS, suspended in 50 μl sample buffer containing 125 mM Tris-HCl, pH 6.8, 4% SDS, 10% glycerol, 0.3% bromphenol blue, 1.8% β-mercaptoethanol and boiled for 5 min. Equivalent amounts of each treatment group were run on 15% SDS polyacrylamide gels. […] Intensity of bands was analyzed using Multianalyst™ (Bio Rad, Laboratories inc., Hercules, Calif.). […] Activation of NF-κB complex was quantified with an ELISA-based Kit, using attached oligonucleotides binding to a NF-κB consensus site and detected by an anti-p65 or p50 subunit antibody, according to the manufacturer's instructions (Trans-AM™ NFκB, Active Motif). […] Sections were incubated with mouse anti-NF-κB (p65) (1:50 dilution) or rabbit anti-IκB (1:50 dilution, C-21, Santa Cruz) antibodies, detected by donkey anti-mouse or anti-rabbit Cy3 conjugated antibodies and double stained for insulin as described above.

IL-1Ra = IL-1Ra expression and release in human islets; type: cell-based; conditions: for IL-1Ra released into the culture medium and IL-1Ra mRNA: 10 to 500 nM leptin
Description: Islet isolation and cell culture. Islets were isolated from pancreases of ten organ donors at the Department of Surgery, University of Geneva Medical Center, as described (32-34). The islet purity was >95%, as judged by dithizone staining (if this degree of purity was not primarily achieved by routine isolation, islets were handpicked). […] For long-term in vitro studies, the islets were cultured on extracellular matrix-coated plates derived from bovine corneal endothelial cells (Novamed Ltd., Jerusalem, Israel), allowing the cells to attach to the dishes and spread, preserving their functional integrity (7;35). Islets were cultured in CMRL 1066 medium containing 100 U/ml penicillin, 100 μg/ml streptomycin and 10% fetal calf serum (Invitrogen Corporation, Paisley, U.K.), hereafter referred to as culture medium. Two days after plating, when most islets were attached and began to flatten, the medium was changed to culture medium containing 5.5, 11.1 or 33.3 mM glucose. In some experiments, islets were additionally cultured with 5, 10 or 500 nM rh leptin (PeproTech, London, UK), 500 ng/ml rh IL-1Ra (R&D Systems Inc., Minneapolis, Minn.) or 50 nM small interfering RNA (siRNA) as described below.
RNA interference. RNAs of 21 nucleotides, designed to target human IL-1Ra (5′AUCUGCAGAGGCCUCCGCAtt3′/5′UGCGGAGGCCUCUGCAGAUtt3′) and scrambled siRNA were synthesized by Ambion (Austin, Tex.). siRNAs were transfected using SiPortAmine™ according to the manufacturer's instructions (Ambion).
Detection of IL-1Ra and IL-1β expressing cells. Pancreases from routine necropsies were immersion-fixed in formalin, followed by paraffin embedding. In parallel, isolated human were cultured in a suspension for 48 hours and exposed to 10 nM leptin or 33.3 mM glucose, islets were fixed in Bouin solution for 15 min, resuspended in 40 μl of 2% melted agarose in PBS (40° C.), followed by rapid centrifugation and paraffin embedding. Sections were deparaffinized, rehydrated and then incubated in methanol for 4 min. Human islets cultured on extracellular matrix for 4 days were washed in PBS, fixed in 4% paraformaldehyde (30 min, room temperature) followed by permeabilization with 0.5% triton X-100 (4 min, room temperature). Pancreas and islet sections and cultured cells were double-labeled for IL-1Ra or IL-1β and insulin, CD68, glucagon or somatostatin by 1 h of exposure to 10% bovine serum albumin followed by incubation (1 h, 37° C.) with biotinylated goat anti-IL-1Ra or mouse anti-IL-1β antibodies (R&D Systems Inc.). Detection was performed using cy3-(Jackson, ImMunoResearch Laboratories, West Grove, Pa.) or cy2-(Transduction Lab., Lexington, Ky.) conjugated streptavidin. […]

Substance	glucose-induced increase in NF-κB activity (NF-κB)	IL-1Ra expression in β-cells (double immunostaining) (IL-1Ra; 10 nM leptin, 48 hours)	IL-1Ra released into the culture medium and IL-1Ra mRNA (IL-1Ra; 15 hours)	IL-1Ra released into the culture medium and IL-1Ra mRNA (IL-1Ra; 48 hours)	IL-1Ra protein (Western blot) (IL-1Ra; leptin, 15-hour exposure)
Interleukin 1 receptor antagonist [IL-1Ra]	prevented				
leptin: rh leptin (PeproTech); protein encoded by the ob gene		decreased IL-1Ra expression in most β-cells	increased	marked decrease	decreased IL-1Ra already after a 15-hour exposure
